Patent publication US11091479B2, “Triazolopyridin-3-ones or their salts and pharmaceutical compositions comprising the same” (YUHAN CORPORATION, priority 2018, dated 2021)
Structures can show the parent of a compound that is named as a salt.

Legend:
Assay type in all cases: biochemical
recombinant human VAP-1 = biological target: T1, recombinant human VAP-1 (Homo sapiens, UniProt Q16853); experiment: Activity on recombinant human VAP-1, HRP-coupled Amplex Red hydrogen peroxide assay, benzylamine substrate; conditions: 30 min incubation at 37° C., 1 mM benzylamine, read-out: Inhibitory Activity (IC50, nM) human VAP-1
T1 construct: purchased R&D systems
T1 sequence (Q16853 1-763): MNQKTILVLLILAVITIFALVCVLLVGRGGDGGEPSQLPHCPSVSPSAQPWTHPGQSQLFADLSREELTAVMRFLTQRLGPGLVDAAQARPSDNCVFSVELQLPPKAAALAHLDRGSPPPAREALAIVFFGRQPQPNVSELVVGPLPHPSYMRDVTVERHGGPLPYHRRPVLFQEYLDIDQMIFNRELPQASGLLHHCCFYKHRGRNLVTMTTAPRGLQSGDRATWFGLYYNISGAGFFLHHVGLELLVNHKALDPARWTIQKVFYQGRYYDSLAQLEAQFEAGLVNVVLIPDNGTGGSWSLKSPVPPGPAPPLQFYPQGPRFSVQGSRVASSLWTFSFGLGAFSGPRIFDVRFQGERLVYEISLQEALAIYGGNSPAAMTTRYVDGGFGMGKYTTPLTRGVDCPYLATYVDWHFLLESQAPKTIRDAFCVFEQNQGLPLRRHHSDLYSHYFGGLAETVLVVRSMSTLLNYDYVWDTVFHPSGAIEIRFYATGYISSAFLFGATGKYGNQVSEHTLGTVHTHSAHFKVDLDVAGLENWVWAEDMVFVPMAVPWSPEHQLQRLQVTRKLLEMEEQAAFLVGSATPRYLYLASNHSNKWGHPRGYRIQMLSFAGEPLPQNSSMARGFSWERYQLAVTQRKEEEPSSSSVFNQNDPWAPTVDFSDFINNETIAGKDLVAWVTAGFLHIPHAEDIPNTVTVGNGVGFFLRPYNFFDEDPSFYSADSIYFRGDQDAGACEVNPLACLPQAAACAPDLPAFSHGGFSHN
Procedure, shortened: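 Recombinant human VAP-1 in 50 mM sodium phosphate pH 7.4 preincubated with compound for 30 min at 37 °C, then 1 mM benzylamine, 200 uM Amplex Red and 1 U/mL HRP added. Resorufin fluorescence (ex 544/em 590 nm) followed over 1-2 h; % signal-rate decrease vs DMSO control, 8-point 4-parameter fit for IC50.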

[1] = biological target: T2, recombinant human DAO (diamine oxidase) (Homo sapiens, UniProt P19801); experiment: Activity on recombinant human DAO, method similar to VAP-1 assay, 1 mM putrescine substrate; conditions: read-out: Inhibitory Activity (IC50, nM) DAO
T2 construct: purchased R&D systems
T2 sequence (P19801 20-751): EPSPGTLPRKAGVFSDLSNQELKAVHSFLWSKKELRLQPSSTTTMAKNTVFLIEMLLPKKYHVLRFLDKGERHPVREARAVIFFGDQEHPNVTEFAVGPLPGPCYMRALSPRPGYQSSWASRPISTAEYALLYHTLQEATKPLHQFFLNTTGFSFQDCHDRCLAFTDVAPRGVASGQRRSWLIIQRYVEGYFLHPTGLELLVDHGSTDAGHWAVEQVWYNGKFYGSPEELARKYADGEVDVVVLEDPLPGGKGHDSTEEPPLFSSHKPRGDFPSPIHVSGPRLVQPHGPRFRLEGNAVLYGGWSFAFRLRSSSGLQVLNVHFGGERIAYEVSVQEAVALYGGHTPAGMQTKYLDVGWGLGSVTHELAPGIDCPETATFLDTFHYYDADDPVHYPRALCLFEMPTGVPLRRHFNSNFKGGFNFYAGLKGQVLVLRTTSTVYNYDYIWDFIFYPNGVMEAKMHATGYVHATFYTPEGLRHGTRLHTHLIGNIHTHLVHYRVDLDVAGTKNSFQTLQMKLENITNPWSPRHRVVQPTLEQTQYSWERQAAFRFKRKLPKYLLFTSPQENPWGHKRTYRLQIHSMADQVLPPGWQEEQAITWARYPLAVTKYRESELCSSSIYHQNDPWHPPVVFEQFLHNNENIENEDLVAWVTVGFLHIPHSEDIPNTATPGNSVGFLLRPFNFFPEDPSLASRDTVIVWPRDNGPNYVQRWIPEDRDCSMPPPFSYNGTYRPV
Procedure, shortened: (§1)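 Amplex Red/HRP-coupled H2O2 fluorescence assay run as for VAP-1: enzyme in 50 mM sodium phosphate pH 7.4 preincubated with compound 30 min at 37 °C, then substrate (putrescine for DAO, benzylamine for MAO-B, tyramine for MAO-A) added with 200 uM Amplex Red, 1 U/mL HRP. Signal rate over 1-2 h; IC50 from 4-parameter logistic fit.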

[2] = biological target: T3, recombinant human MAO-A (monoamine oxidase-A) (Homo sapiens, UniProt P21397); experiment: Activity on recombinant human MAO-A, method similar to VAP-1 assay, 0.5 mM tyramine substrate; conditions: read-out: Inhibitory Activity (IC50, nM) MAO-A
T3 construct: purchased Sigma-Aldrich
T3 sequence (P21397 1-527): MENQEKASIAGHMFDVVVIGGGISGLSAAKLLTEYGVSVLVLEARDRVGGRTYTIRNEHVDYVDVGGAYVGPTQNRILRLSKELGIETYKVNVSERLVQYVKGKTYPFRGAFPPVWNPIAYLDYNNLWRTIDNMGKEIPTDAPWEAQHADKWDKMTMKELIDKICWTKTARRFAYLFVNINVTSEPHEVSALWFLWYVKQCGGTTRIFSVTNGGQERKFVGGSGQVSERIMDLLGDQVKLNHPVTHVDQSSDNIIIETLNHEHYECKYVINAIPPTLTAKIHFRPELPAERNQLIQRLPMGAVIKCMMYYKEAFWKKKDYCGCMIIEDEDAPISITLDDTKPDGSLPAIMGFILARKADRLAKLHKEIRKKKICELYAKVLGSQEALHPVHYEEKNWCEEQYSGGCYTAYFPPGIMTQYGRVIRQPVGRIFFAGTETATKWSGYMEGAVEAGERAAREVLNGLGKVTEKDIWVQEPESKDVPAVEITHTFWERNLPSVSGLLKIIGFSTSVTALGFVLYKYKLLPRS
Procedure, shortened: as §1

[3] = biological target: T4, recombinant human MAO-B (monoamine oxidase-B) (Homo sapiens, UniProt P27338); experiment: Activity on recombinant human MAO-B, method similar to VAP-1 assay, 1 mM benzylamine substrate; conditions: read-out: Inhibitory Activity (IC50, nM) MAO-B
T4 construct: purchased Sigma-Aldrich
T4 sequence (P27338 1-520): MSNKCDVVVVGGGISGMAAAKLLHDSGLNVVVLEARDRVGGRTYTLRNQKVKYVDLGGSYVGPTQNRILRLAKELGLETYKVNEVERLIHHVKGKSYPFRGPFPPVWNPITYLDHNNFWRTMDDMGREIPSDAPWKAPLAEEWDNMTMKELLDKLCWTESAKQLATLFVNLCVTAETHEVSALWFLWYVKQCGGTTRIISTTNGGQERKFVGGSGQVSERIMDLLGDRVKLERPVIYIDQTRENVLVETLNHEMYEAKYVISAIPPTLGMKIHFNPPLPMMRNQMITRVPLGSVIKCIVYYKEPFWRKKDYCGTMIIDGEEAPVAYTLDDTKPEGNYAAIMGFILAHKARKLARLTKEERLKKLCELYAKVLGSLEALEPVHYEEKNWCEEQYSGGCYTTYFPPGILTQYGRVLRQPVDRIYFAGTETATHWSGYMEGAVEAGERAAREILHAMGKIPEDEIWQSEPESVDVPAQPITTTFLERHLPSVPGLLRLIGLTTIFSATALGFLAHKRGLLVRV
Procedure, shortened: as §1

IC50 (recombinant human VAP-1) [nM]	IC50 [1] [nM]	IC50 [2] [nM]	IC50 [3] [nM]	Compound
0.2	0.5	> 100000	24	NC/C(=C\F)Cn1nc2cc(-c3c[nH]c4ncccc34)ccn2c1=O [Example 35, 2-[(2E)-2-(aminomethyl)-3-fluoroprop-2-en-1-yl]-7-(1H-pyrrolo[2,3-b]pyridin-3-yl)[1,2,4]triazolo[4,3-a]pyridin-3(2H)-one hydrochloride]
0.3	20	66000	3.8	NC/C(=C\F)Cn1nc2cc(-c3ccc4c(c3)OCO4)ccn2c1=O [Example 36, 2-[(2E)-2-(aminomethyl)-3-fluoroprop-2-en-1-yl]-7-(1,3-benzodioxol-5-yl)[1,2,4]triazolo[4,3-a]pyridin-3(2H)-one hydrochloride]
0.1	0.3	26000	190	NC/C(=C\F)Cn1nc2cc(-c3ccc4cn[nH]c4c3)ccn2c1=O [Example 37, 2-[(2E)-2-(aminomethyl)-3-fluoroprop-2-en-1-yl]-7-(1H-indazol-6-yl)[1,2,4]triazolo[4,a]pyridin-3(2H)-one hydrochloride]
0.2	0.4	3500	< 10	NC/C(=C\F)Cn1nc2cc(-c3ccc4nonc4c3)ccn2c1=O [Example 38, 2-[(2E)-2-(aminomethyl)-3-fluoroprop-2-en-1-yl]-7-(2,1,3-benzoxadiazol-5-yl)[1,2,4]triazolo[4,3-a]pyridin-3(2H)-one hydrochloride]
0.1	0.2	96000	1100	NC/C(=C\F)Cn1nc2cc(-c3ccc4nn[nH]c4c3)ccn2c1=O [Example 39, 2-[(2E)-2-(aminomethyl)-3-fluoroprop-2-en-1-yl]-7-(1H-benzotriazol-6-yl)[1,2,4]triazolo[4,3-a]pyridin-3(2H)-one hydrochloride]
0.3	9.4	> 100000	760	NC/C(=C\F)Cn1nc2cc(-c3ccnc4[nH]ccc34)ccn2c1=O [Example 40, 2-[(2E)-2-(aminomethyl)-3-fluoroprop-2-en-1-yl]-7-(1H-pyrrolo[2,3-b]pyridin-4-yl)[1,2,4]triazolo[4,3-a]pyridin-3(2H)-one hydrochloride]
0.3	1.3	6800	730	NC/C(=C\F)Cn1nc2cc(-c3ccc4c(c3)NC(=O)OC4)ccn2c1=O [Example 41, 7-[2-[(2E)-2-(aminomethyl)-3-fluoroprop-2-en-1-yl]-3-oxo-2,3-dihydro[1,2,4]triazolo[4,3-a]pyridin-7-yl]-1,4-dihydro-2H-3,1-benzoxazin-2-one hydrochloride]
0.3	1	5400	1400	NC/C(=C\F)Cn1nc2cc(-c3ccc4c(c3)NC(=O)CO4)ccn2c1=O [Example 42, 6-[2-[(2E)-2-(aminomethyl)-3-fluoroprop-2-en-1-yl]-3-oxo-2,3-dihydro[1,2,4]triazolo[4,3-a]pyridin-7-yl]-2H-1,4-benzoxazine-3 (4H)-one hydrochloride]
0.5	9.6	> 100000	140	Cc1cc(-c2ccn3c(=O)n(C/C(=C/F)CN)nc3c2)cc2c1NC(=O)CC2 [Example 43, 6-[2-[(2E)-2-(aminomethyl)-3-fluoroprop-2-en-1-yl]-3-oxo-2,3-dihydro[1,2,4]triazolo[4,3-a]pyridin-7-yl]-8-methyl-3,4-dihydroquinolin-2(1H)-one hydrochloride]
1	400	> 100000	< 10	CN1CCOc2cc(-c3ccn4c(=O)n(C/C(=C/F)CN)nc4c3)ccc21 [Example 44, 2-[(2E)-2-(aminomethyl)-3-fluoroprop-2-en-1-yl]-7-(4-methyl-3,4-dihydro-2H-1,4-benzoxazin-7-yl)[1,2,4]triazolo[4,3-a]pyridin-3(2H)-one hydrochloride]
24	11000	> 100000	> 100000	NCC(Cn1nc2cccc(Br)n2c1=O)=C(F)F [Example 45, 2-[2-(aminomethyl)-3,3-difluoro-allyl]-5-bromo-[1,2,4]triazolo[4,3-a]pyridin-3-one trifluoroacetate]
36	26000	> 100000	> 100000	NCC(Cn1nc2ccc(Br)cn2c1=O)=C(F)F [Example 46, 2-[2-(aminomethyl)-3,3-difluoro-allyl]-6-bromo-[1,2,4]triazolo[4,3-a]pyridin-3-one trifluoroacetate]
7	42000	> 100000	> 100000	NCC(Cn1nc2cc(Br)ccn2c1=O)=C(F)F [Example 47, 2-[2-(aminomethyl)-3,3-difluoro-allyl]-7-bromo-[1,2,4]triazolo[4,3-a]pyridin-3-one trifluoroacetate]
0.1	100	> 100000	800	CS(=O)(=O)c1ccc(-c2ccn3c(=O)n(CC(CN)=C(F)F)nc3c2)cc1 [Example 48, 2-[2-(aminomethyl)-3,3-difluoro-allyl]-7-(4-methylsulfonylphenyl)-[1,2,4]triazolo[4,3-a]pyridin-3-one trifluoroacetate]
